Test results: patent US20100178365A1, “EPICATECHIN DEFICIENT GREEN TEA” (priority 2007, published 2010)

Assays:
[1] = test system: cultured adipocytes, myocytes and hepatocytes; experiment: glucose uptake ability at cultured cells (FIG. 3); format: cell-based; details: for normal glucose uptake mechanism after a meal: hepatocytes, adipocytes and muscle cells
Text: We can see that basal glucose uptake ability and insulin stimulated glucose uptake ability decreased based on the given EGCG concentration.

[2] = intraperitoneal glucose tolerance test after intravenous epicatechin (FIG. 1); format: in vivo; details: rats; epicatechin intravenously 30 min before glucose loading 2 g/kg
Procedure: Each epicatechin was injected intravenously 30 min before the glucose loading.

KATP channels = experiment: inhibition of KATP channels and their ATP/PIP sensitivity; format: biochemical; details: for effect on KATP channels: via allosteric interactions with phospholipids of the lipid membrane
Procedure: EGCG and ECG with gallate ester groups inhibited KATP channels via allosteric interactions with phospholipids of the lipid membrane. But the effective EGCG concentration was more than 10 μM. Further, EGCG is the only green tea epicatechin that decreases the sensitivity of ATP and PIP to the KATP channel. By this mechanism, we concluded that EGCG caused decrease in insulin secretion in response to glucose in the β-cell of pancreas. Patients with diabetes or people with a risk factor for diabetes should be careful because the effective concentration of EGCG for this mechanism could be 1-10 μM, which is an achievable concentration when a person drinks 2-8 cups of green tea while fasting.

[3] = adipocytes, myocytes and hepatocytes, based on the given EGCG concentration

With `O=C(O[C@@H]1Cc2c(O)cc(O)cc2O[C@@H]1c1ccc(O)c(O)c1)c1cc(O)c(O)c(O)c1` [ECG, (−)-epicatechin-3-gallate] the “normal glucose uptake mechanism after a meal” value [1] was “inhibited”, the “blood glucose concentration during intraperitoneal glucose tolerance test” value [2] was “High blood glucose level” and the “effect on KATP channels” value (KATP channels) was “inhibited”.
For `O=C(O[C@@H]1Cc2c(O)cc(O)cc2O[C@@H]1c1cc(O)c(O)c(O)c1)c1cc(O)c(O)c(O)c1` [EGCG, (−)-epigallocatechin-3-gallate], the “blood EGCG level at which the glucose uptake inhibition can occur” value [1] was “lower than 10 μM”, the “basal glucose uptake ability” value [1, 3] was “decreased” and the “insulin stimulated glucose uptake ability” value [1, 3] was “decreased”. For the same compound, the “normal glucose uptake mechanism after a meal” value [1] was “inhibited”, the “blood glucose concentration during intraperitoneal glucose tolerance test” value [2] was “High blood glucose level” and the “effective concentration for KATP channel inhibition” value (KATP channels) was “more than 10 μM”. The “sensitivity of ATP and PIP to the KATP channel” value (KATP channels) was “decreases”, the “effective concentration for decreasing ATP and PIP sensitivity of the KATP channel” value (KATP channels; stated as 'could be') was 1 to 10 µM and the “effect on KATP channels” value (KATP channels) was “inhibited”.
